According to patent US10550111B2, “Pyrimidine urea compound containing isoxazolines and use thereof” (SHENYANG SINOCHEM AGROCHEMICALS R&D CO., LTD, priority 2014, dated 2020):

Legend:
Format in all cases: in vivo
[1] = system: broad-leaf weeds and grass weeds; assay: General screening of herbicidal activity in greenhouse; details: 1000 g a.i./hm^2;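 also: 0 means no visible effect and 100 means all weeds dead or not emerged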
Procedure, shortened: (§1)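 Visual growth inhibition rating (0–100%; 100 = weeds dead or not emerged) after track-sprayer application of compounds formulated as emulsifiable concentrates. Sprays given 24 h post-sowing (pre-emergence) or at 2–3-leaf (grasses) / 2–4-leaf (broad-leaves) stage, greenhouse-grown plants.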

[2] = system: Setaria glauca (L.) Beauv.; assay: Bioassay of herbicidal activity in greenhouse (further screening)
Procedure, shortened: as §1

Zinnia elegans Jacq. = assay: as above
Procedure, shortened: as §1

[3] = system: Abutilon theophrasti Medic.; assay: as above
Procedure, shortened: as §1

[4] = system: Echinochloa crus-galli (L.) Beauv.; assay: as above
Procedure, shortened: as §1

Row | Compound | pre-emergence and post-emergence herbicidal activity against broad-leaf weeds and grass weeds [1] | Growth inhibition rate, Post-emergence treatment, Setaria glauca (L.) Beauv. ([2]; dose 37.5 g a.i./hm^2) [%] | Growth inhibition rate, Post-emergence treatment, Setaria glauca (L.) Beauv. ([2]; dose 150 g a.i./hm^2) [%] | Growth inhibition rate, Post-emergence treatment, Setaria glauca (L.) Beauv. ([2]; dose 600 g a.i./hm^2) [%] | Growth inhibition rate, Pre-emergence treatment, Setaria glauca (L.) Beauv. ([2]; dose 37.5 g a.i./hm^2) [%] | Growth inhibition rate, Pre-emergence treatment, Setaria glauca (L.) Beauv. ([2]; dose 150 g a.i./hm^2) [%] | Growth inhibition rate, Pre-emergence treatment, Setaria glauca (L.) Beauv. ([2]; dose 600 g a.i./hm^2) [%] | Growth inhibition rate, Post-emergence treatment, Zinnia elegans Jacq. (Zinnia elegans Jacq.; dose 37.5 g a.i./hm^2) [%] | Growth inhibition rate, Post-emergence treatment, Zinnia elegans Jacq. (Zinnia elegans Jacq.; dose 150 g a.i./hm^2) [%] | Growth inhibition rate, Post-emergence treatment, Zinnia elegans Jacq. (Zinnia elegans Jacq.; dose 600 g a.i./hm^2) [%] | Growth inhibition rate, Pre-emergence treatment, Zinnia elegans Jacq. (Zinnia elegans Jacq.; dose 37.5 g a.i./hm^2) [%] | Growth inhibition rate, Pre-emergence treatment, Zinnia elegans Jacq. (Zinnia elegans Jacq.; dose 150 g a.i./hm^2) [%] | Growth inhibition rate, Pre-emergence treatment, Zinnia elegans Jacq. (Zinnia elegans Jacq.; dose 600 g a.i./hm^2) [%] | Growth inhibition rate, Post-emergence treatment, Abutilon theophrasti Medic. ([3]; dose 37.5 g a.i./hm^2) [%] | Growth inhibition rate, Post-emergence treatment, Abutilon theophrasti Medic. ([3]; dose 150 g a.i./hm^2) [%] | Growth inhibition rate, Post-emergence treatment, Abutilon theophrasti Medic. ([3]; dose 600 g a.i./hm^2) [%] | Growth inhibition rate, Pre-emergence treatment, Abutilon theophrasti Medic. ([3]; dose 37.5 g a.i./hm^2) [%] | Growth inhibition rate, Pre-emergence treatment, Abutilon theophrasti Medic. ([3]; dose 150 g a.i./hm^2) [%] | Growth inhibition rate, Pre-emergence treatment, Abutilon theophrasti Medic. ([3]; dose 600 g a.i./hm^2) [%] | Growth inhibition rate, Post-emergence treatment, Echinochloa crus-galli (L.) Beauv. ([4]; dose 37.5 g a.i./hm^2) [%] | other results
1 | CC(C)OC(=O)C1(C)CC(c2cc(-n3c(=O)cc(C(F)(F)F)n(C)c3=O)c(F)cc2Cl)=NO1 (stereo not drawn) [Compound 10] | good |  |  |  |  |  |  |  |  |  |  |  |  |  |  |  |  |  |  |  | Growth inhibition rate, Post-emergence treatment, Setaria glauca (L.) Beauv. ([2]; dose 7.5 g a.i./hm^2): 90%; Growth inhibition rate, Post-emergence treatment, Setaria glauca (L.) Beauv. ([2]; dose 15 g a.i./hm^2): 100%; Growth inhibition rate, Post-emergence treatment, Setaria glauca (L.) Beauv. ([2]; dose 30.0 g a.i./hm^2): 100%; Growth inhibition rate, Post-emergence treatment, Setaria glauca (L.) Beauv. ([2]; dose 60.0 g a.i./hm^2): 100%; Growth inhibition rate, Post-emergence treatment, Setaria glauca (L.) Beauv. ([2]; dose 120.0 g a.i./hm^2): 100%; Growth inhibition rate, Post-emergence treatment, Zinnia elegans Jacq. (Zinnia elegans Jacq.; dose 7.5 g a.i./hm^2): 100%; Growth inhibition rate, Post-emergence treatment, Zinnia elegans Jacq. (Zinnia elegans Jacq.; dose 15 g a.i./hm^2): 100%; Growth inhibition rate, Post-emergence treatment, Zinnia elegans Jacq. (Zinnia elegans Jacq.; dose 30.0 g a.i./hm^2): 100%; Growth inhibition rate, Post-emergence treatment, Zinnia elegans Jacq. (Zinnia elegans Jacq.; dose 60.0 g a.i./hm^2): 100%; Growth inhibition rate, Post-emergence treatment, Zinnia elegans Jacq. (Zinnia elegans Jacq.; dose 120.0 g a.i./hm^2): 100%; Growth inhibition rate, Post-emergence treatment, Abutilon theophrasti Medic. ([3]; dose 7.5 g a.i./hm^2): 100%; Growth inhibition rate, Post-emergence treatment, Abutilon theophrasti Medic. ([3]; dose 15 g a.i./hm^2): 100%; Growth inhibition rate, Post-emergence treatment, Abutilon theophrasti Medic. ([3]; dose 30.0 g a.i./hm^2): 100%; Growth inhibition rate, Post-emergence treatment, Abutilon theophrasti Medic. ([3]; dose 60.0 g a.i./hm^2): 100%; Growth inhibition rate, Post-emergence treatment, Abutilon theophrasti Medic. ([3]; dose 120.0 g a.i./hm^2): 100%; Growth inhibition rate, Post-emergence treatment, Echinochloa crus-galli (L.) Beauv. ([4]; dose 7.5 g a.i./hm^2): 90%; Growth inhibition rate, Post-emergence treatment, Echinochloa crus-galli (L.) Beauv. ([4]; dose 15 g a.i./hm^2): 98%; Growth inhibition rate, Post-emergence treatment, Echinochloa crus-galli (L.) Beauv. ([4]; dose 30.0 g a.i./hm^2): 100%; Growth inhibition rate, Post-emergence treatment, Echinochloa crus-galli (L.) Beauv. ([4]; dose 60.0 g a.i./hm^2): 100%; Growth inhibition rate, Post-emergence treatment, Echinochloa crus-galli (L.) Beauv. ([4]; dose 120.0 g a.i./hm^2): 100%
2 | Cn1c(C(F)(F)F)cc(=O)n(-c2cc(C3=NOC(C)(C(=O)O)C3)c(Cl)cc2F)c1=O (stereo not drawn) [Compound 4] | good | 20 | 70 | 100 | 0 | 5 | 30 | 95 | 100 | 100 | 0 | 5 | 20 | 50 | 98 | 98 | 10 | 15 | 40 | 15 | Growth inhibition rate, Post-emergence treatment, Echinochloa crus-galli (L.) Beauv. ([4]; dose 150 g a.i./hm^2): 25%; Growth inhibition rate, Post-emergence treatment, Echinochloa crus-galli (L.) Beauv. ([4]; dose 600 g a.i./hm^2): 85%; Growth inhibition rate, Pre-emergence treatment, Echinochloa crus-galli (L.) Beauv. ([4]; dose 37.5 g a.i./hm^2): 0%; Growth inhibition rate, Pre-emergence treatment, Echinochloa crus-galli (L.) Beauv. ([4]; dose 150 g a.i./hm^2): 0%; Growth inhibition rate, Pre-emergence treatment, Echinochloa crus-galli (L.) Beauv. ([4]; dose 600 g a.i./hm^2): 10%
3 | CCCCOC(=O)C1(C)CC(c2cc(-n3c(=O)cc(C(F)(F)F)n(C)c3=O)ccc2Cl)=NO1 (stereo not drawn) [Compound 286] | good | 15 | 70 | 75 | 0 | 10 | 30 | 85 | 100 | 100 | 0 | 0 | 10 | 90 | 100 | 100 | 0 | 0 | 15 | 20 | Growth inhibition rate, Post-emergence treatment, Echinochloa crus-galli (L.) Beauv. ([4]; dose 150 g a.i./hm^2): 60%; Growth inhibition rate, Post-emergence treatment, Echinochloa crus-galli (L.) Beauv. ([4]; dose 600 g a.i./hm^2): 75%; Growth inhibition rate, Pre-emergence treatment, Echinochloa crus-galli (L.) Beauv. ([4]; dose 37.5 g a.i./hm^2): 0%; Growth inhibition rate, Pre-emergence treatment, Echinochloa crus-galli (L.) Beauv. ([4]; dose 150 g a.i./hm^2): 5%; Growth inhibition rate, Pre-emergence treatment, Echinochloa crus-galli (L.) Beauv. ([4]; dose 600 g a.i./hm^2): 15%
4 | CCCOC(=O)C1(C)CC(c2cc(-n3c(=O)cc(C(F)(F)F)n(C)c3=O)c(F)cc2Cl)=NO1 (stereo not drawn) [Compound 7] | good |  |  |  |  |  |  |  |  |  |  |  |  |  |  |  |  |  |  |  | Growth inhibition rate, Post-emergence treatment, Setaria glauca (L.) Beauv. ([2]; dose 7.5 g a.i./hm^2): 55%; Growth inhibition rate, Post-emergence treatment, Setaria glauca (L.) Beauv. ([2]; dose 15 g a.i./hm^2): 90%; Growth inhibition rate, Post-emergence treatment, Setaria glauca (L.) Beauv. ([2]; dose 30.0 g a.i./hm^2): 90%; Growth inhibition rate, Post-emergence treatment, Setaria glauca (L.) Beauv. ([2]; dose 60.0 g a.i./hm^2): 100%; Growth inhibition rate, Post-emergence treatment, Setaria glauca (L.) Beauv. ([2]; dose 120.0 g a.i./hm^2): 100%; Growth inhibition rate, Post-emergence treatment, Zinnia elegans Jacq. (Zinnia elegans Jacq.; dose 7.5 g a.i./hm^2): 55%; Growth inhibition rate, Post-emergence treatment, Zinnia elegans Jacq. (Zinnia elegans Jacq.; dose 15 g a.i./hm^2): 60%; Growth inhibition rate, Post-emergence treatment, Zinnia elegans Jacq. (Zinnia elegans Jacq.; dose 30.0 g a.i./hm^2): 75%; Growth inhibition rate, Post-emergence treatment, Zinnia elegans Jacq. (Zinnia elegans Jacq.; dose 60.0 g a.i./hm^2): 98%; Growth inhibition rate, Post-emergence treatment, Zinnia elegans Jacq. (Zinnia elegans Jacq.; dose 120.0 g a.i./hm^2): 100%; Growth inhibition rate, Post-emergence treatment, Abutilon theophrasti Medic. ([3]; dose 7.5 g a.i./hm^2): 75%; Growth inhibition rate, Post-emergence treatment, Abutilon theophrasti Medic. ([3]; dose 15 g a.i./hm^2): 98%; Growth inhibition rate, Post-emergence treatment, Abutilon theophrasti Medic. ([3]; dose 30.0 g a.i./hm^2): 100%; Growth inhibition rate, Post-emergence treatment, Abutilon theophrasti Medic. ([3]; dose 60.0 g a.i./hm^2): 100%; Growth inhibition rate, Post-emergence treatment, Abutilon theophrasti Medic. ([3]; dose 120.0 g a.i./hm^2): 100%; Growth inhibition rate, Post-emergence treatment, Echinochloa crus-galli (L.) Beauv. ([4]; dose 7.5 g a.i./hm^2): 25%; Growth inhibition rate, Post-emergence treatment, Echinochloa crus-galli (L.) Beauv. ([4]; dose 15 g a.i./hm^2): 90%; Growth inhibition rate, Post-emergence treatment, Echinochloa crus-galli (L.) Beauv. ([4]; dose 30.0 g a.i./hm^2): 98%; Growth inhibition rate, Post-emergence treatment, Echinochloa crus-galli (L.) Beauv. ([4]; dose 60.0 g a.i./hm^2): 100%; Growth inhibition rate, Post-emergence treatment, Echinochloa crus-galli (L.) Beauv. ([4]; dose 120.0 g a.i./hm^2): 100%
5 | CCCS(=O)(=O)OCC1(C)CC(c2cc(-n3c(=O)cc(C(F)(F)F)n(C)c3=O)c(F)cc2Cl)=NO1 (stereo not drawn) [Compound 90] | good | 25 | 60 | 80 | 5 | 20 | 50 | 98 | 100 | 100 | 5 | 30 | 80 | 100 | 100 | 100 | 0 | 10 | 30 | 15 | Growth inhibition rate, Post-emergence treatment, Echinochloa crus-galli (L.) Beauv. ([4]; dose 150 g a.i./hm^2): 35%; Growth inhibition rate, Post-emergence treatment, Echinochloa crus-galli (L.) Beauv. ([4]; dose 600 g a.i./hm^2): 40%; Growth inhibition rate, Pre-emergence treatment, Echinochloa crus-galli (L.) Beauv. ([4]; dose 37.5 g a.i./hm^2): 0%; Growth inhibition rate, Pre-emergence treatment, Echinochloa crus-galli (L.) Beauv. ([4]; dose 150 g a.i./hm^2): 10%; Growth inhibition rate, Pre-emergence treatment, Echinochloa crus-galli (L.) Beauv. ([4]; dose 600 g a.i./hm^2): 25%
